The values that follow come from US11180487B2, “Substituted cyanoindoline derivatives as NIK inhibitors” (Janssen Pharmaceutica NV, priority 2016, dated 2021).

Structures are written as SMILES.

As usually defined, the melting point is the temperature, or range, at which the solid turns liquid.

The subject of data set [1] is KMS12-BM (NIK WT) multiple myeloma cells. Kind of data set: Antiproliferative activity on KMS12-BM multiple myeloma cells (CellTiter-Glo, 96 hr), Biological Assay C. Type of data set: cell-based, human. The following applies: Homo sapiens, KMS-12-BM, 96 h, averaged values, read-out: KMS-12 Proliferation inhibition (IC50 (nM)). The protocol: (§1) Determination of Antiproliferative Activity on JJN-3 (NIK Translocated) and KMS12-BM (NIK WT) Multiple Myeloma Cells
(§2) All compounds tested were dissolved in DMSO and further dilutions were made in culture medium. Final DMSO concentration was 0.3% (v/v) in cell proliferation assays. Viability was assessed using CellTiter-Glo cell viability assay kit (Promega). The human JJN-3 and KMS12-BM cells (DSMZ) were cultured in RPMI 1640 medium supplemented with 2 mM L-glutamine, and 10% fetal calf serum (PAA). Cells were routinely kept as suspension cells at 37° C. in a humidified 5% CO2 atmosphere. Cells were passaged at a seeding density of 0.2×10^6/ml twice a week. Cells were seeded in black tissue culture treated 96-well plates (Perkin Elmer). Densities used for plating ranged from 15000 (JJN3) to 20000 (KMS12BM) cells per well in a total volume of 135 μl medium. Drugs and/or solvents were added (15 μl) to a final volume of 150 μl. Following 96 hr of treatment, plates were removed from the incubator and allowed to equilibrate to room temperature for approx 10 min. 75 μl CellTiter-Glo reagent was added to each well that was then covered (Perkin Elmer Topseal) and shaken on plate shaker for 10 min. Luminescence was measured on a HTS Topcount (Perkin Elmer).
(§3) Within an experiment, the results for each treatment were the mean of 2 replicate wells. For initial screening purposes, compounds were tested using a 9 point dilution curve (serial 1:3 dilutions). For each experiment, controls (containing no drug) and a blank incubation (containing cells read at the time of compound addition) were run in parallel. The blank value was subtracted from all control and sample values. For each sample, the mean value for cell growth (in relative light units) was expressed as a percentage of the mean value for cell growth of the control.
(Cellular ATP, detected with luciferase, serves as a proxy for viable cell number.)

The target of data set [2] is recombinant human NF-kappaB-inducing kinase (NIK/MAP3K14) (Homo sapiens, UniProt Q99558). In words: Inhibition of auto-phosphorylation of recombinant human NIK/MAP3K14 activity (AlphaScreen), Biological Assay A. The class given is biochemical. The following applies: averaged values over all measurements on all batches. The protocol:
Inhibition of Auto-Phosphorylation of Recombinant Human NF-kappaB-Inducing Kinase (NIK/MAP3K14) Activity (AlphaScreen®)
NIK/MAP3K14 auto-phosphorylation activity was measured using the AlphaScreen® (αscreen) format (Perkin Elmer). All compounds tested were dissolved in dimethyl sulfoxide (DMSO) and further dilutions were made in assay buffer. Final DMSO concentration was 1% (v/v) in assays. Assay buffer was 50 mM Tris pH 7.5 containing 1 mM EGTA (ethylene glycol tetraacetic acid), 1 mM DTT (dithiothreitol), 0.1 mM Na3VO4, 5 mM MgCl2, 0.01% Tween® 20. Assays were carried out in 384 well Alphaplates (Perkin Elmer). Incubations consisted of compound, 25 microM Adenosine-5′-triphosphate (ATP), and 0.2 nM NIK/MAP3K14. Incubations were initiated by addition of GST-tagged NIK/MAP3K14 enzyme, carried out for 1 h at 25° C. and terminated by addition of stop buffer containing anti-phospho-IKK Ser176/180 antibody. Protein A Acceptor and Glutathione-Donor beads were added before reading using an EnVision® Multilabel Plate Reader (Perkin Elmer). Signal obtained in the wells containing blank samples was subtracted from all other wells and IC50's were determined by fitting a sigmoidal curve to % inhibition of control versus Log10 compound concentration.
A general note: In Alpha technology, singlet oxygen from a donor bead excites a nearby acceptor bead.

The subject of data set [3] is JJN-3 (NIK translocated) multiple myeloma cells. Kind of data set: Antiproliferative activity on JJN-3 multiple myeloma cells (CellTiter-Glo, 96 hr), Biological Assay C. The class given is cell-based, human. Conditions: Homo sapiens, JJN-3, 96 h, JJN-3 (NIK translocated) cells, averaged values, read-out: JJN-3 Proliferation inhibition (IC50 (nM)). The protocol:
as §1, §2, §3

Chain of recombinant human NF-kappaB-inducing kinase (NIK/MAP3K14) (Q99558 whole entry): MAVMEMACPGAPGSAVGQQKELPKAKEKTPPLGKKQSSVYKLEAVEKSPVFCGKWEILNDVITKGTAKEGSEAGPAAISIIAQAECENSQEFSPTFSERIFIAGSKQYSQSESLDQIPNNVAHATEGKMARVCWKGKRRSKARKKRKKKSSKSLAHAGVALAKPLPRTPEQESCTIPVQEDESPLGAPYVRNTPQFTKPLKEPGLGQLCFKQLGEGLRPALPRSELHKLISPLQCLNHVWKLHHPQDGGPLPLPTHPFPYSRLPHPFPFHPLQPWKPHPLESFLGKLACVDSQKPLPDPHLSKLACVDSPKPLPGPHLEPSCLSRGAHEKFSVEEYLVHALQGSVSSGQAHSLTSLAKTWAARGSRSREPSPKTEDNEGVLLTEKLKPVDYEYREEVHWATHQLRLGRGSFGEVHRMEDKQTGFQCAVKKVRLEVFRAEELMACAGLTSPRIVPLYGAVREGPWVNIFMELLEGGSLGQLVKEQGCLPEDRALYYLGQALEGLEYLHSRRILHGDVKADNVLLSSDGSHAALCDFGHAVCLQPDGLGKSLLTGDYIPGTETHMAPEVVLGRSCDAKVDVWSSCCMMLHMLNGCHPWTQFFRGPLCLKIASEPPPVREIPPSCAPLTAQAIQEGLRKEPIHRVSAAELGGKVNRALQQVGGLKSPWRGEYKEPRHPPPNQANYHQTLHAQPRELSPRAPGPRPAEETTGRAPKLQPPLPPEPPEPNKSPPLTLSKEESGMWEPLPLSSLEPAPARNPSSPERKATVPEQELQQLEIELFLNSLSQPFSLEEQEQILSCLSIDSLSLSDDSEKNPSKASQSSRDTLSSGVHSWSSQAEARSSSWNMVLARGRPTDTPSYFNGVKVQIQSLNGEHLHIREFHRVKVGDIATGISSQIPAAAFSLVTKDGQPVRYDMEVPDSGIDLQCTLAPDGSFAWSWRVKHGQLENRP

In turn, `COc1ccc(C#N)cc1Nc1nccc(-c2cc(C#N)c3c(c2)C(C)(CO)CN3)n1` (stereo not drawn) [Compound 31] yielded a melting point of 295 °C. Further, the IC50 in data set [1] was > 10000 nM. Besides, the IC50 in data set [2] amounted to 5.3 nM. Besides, the IC50 in data set [3] came to 2340 nM.

`CC1(CO)CNc2c(C#N)cc(-c3ccnc(Nc4cc(C#N)ccc4Cl)n3)cc21` (stereo not drawn) [Compound 32] yielded a melting point of 274 °C. In addition, the IC50 in data set [1] was > 10000 nM. Also, in data set [2], the IC50 stood at 4 nM. In addition, in data set [3], the IC50 worked out at 170 nM.

For the molecule `COc1ccc(Cl)cc1Nc1nccc(-c2cc(C#N)c3c(c2)C(C)(CO)CN3)n1` (stereo not drawn) [Compound 33], the melting point stood at 239 °C. In data set [1], the IC50 is > 10000 nM. The IC50 in data set [2] was determined as 11.2 nM. Also, in data set [3], the IC50 was determined as 85 nM.

Consider `COCCOc1ccc(Cl)cc1Nc1nccc(-c2cc(C#N)c3c(c2)C(C)(CO)CN3)n1` (stereo not drawn) [Compound 34], for which the melting point is 184 °C. Also, the IC50 in data set [1] is > 10000 nM. Besides, in data set [2], the IC50 came out at 20.9 nM. Also, in data set [3], the IC50 was 316 nM.

Molecule `CC1(CO)CNc2c(C#N)cc(-c3ccnc(Nc4cc(Cl)ccc4OC4CCN(C5CC5)CC4)n3)cc21` (stereo not drawn) [Compound 35] returned a melting point of 192 °C. The IC50 in data set [1] was found to be 7080 nM. Also, in data set [2], the IC50 is 37.2 nM. Moreover, the IC50 in data set [3] stood at 129 nM.

`CC1(CO)CNc2c(C#N)cc(-c3ccnc(Nc4ccc(C5CCOCC5)c(C(F)(F)F)c4)n3)cc21` (stereo not drawn) [Compound 36] displayed a melting point of 263 °C. Moreover, the IC50 in data set [1] was 6460 nM. Further, the IC50 in data set [2] stood at 75.9 nM. Besides, in data set [3], the IC50 is 51 nM.

In turn, `CC1(CO)CNc2c(C#N)cc(-c3ccnc(Nc4ccc(OC5CCOCC5)c(C(F)(F)F)c4)n3)cc21` (stereo not drawn) [Compound 37] yielded a melting point of 221 °C. Besides, in data set [1], the IC50 came out at 4170 nM. Besides, the IC50 in data set [2] came to 37.2 nM. Also, in data set [3], the IC50 was 17 nM.

On to `CC1(CO)CNc2c(C#N)cc(-c3ccnc(Nc4cc(C(F)(F)F)ccc4OCCO)n3)cc21` (stereo not drawn) [Compound 38], for which the melting point came to 190 °C. Besides, in data set [1], the IC50 was > 10000 nM. Further, the IC50 in data set [2] came to 30.9 nM. Besides, the IC50 in data set [3] stood at 182 nM.

In turn, `CC1(CO)CNc2c(C#N)cc(-c3ccnc(Nc4cc(Cl)ccc4OCCO)n3)cc21` (stereo not drawn) [Compound 40] showed a melting point of 236 °C. The IC50 in data set [1] was > 10000 nM. Also, in data set [2], the IC50 was 8.7 nM. Moreover, the IC50 in data set [3] was determined as 155 nM.

In the case of `CCN1CCC(c2ccc(Nc3nccc(-c4cc(C#N)c5c(c4)C(C)(CO)CN5)n3)cc2Cl)CC1` (stereo not drawn) [Compound 41], the melting point is > 260 °C. In data set [1], the IC50 amounted to 110 nM. The IC50 in data set [2] is 1.7 nM. Also, the IC50 in data set [3] was 13 nM.

As for `CC(C)c1ccc(COc2cccc(Nc3nccc(-c4cc(C#N)c5c(c4)C(C)(CO)CN5)n3)c2)cc1` (stereo not drawn) [Compound 42], the melting point is 183 °C. Also, the IC50 in data set [1] was > 10000 nM. Besides, the IC50 in data set [2] is 309 nM. Also, in data set [3], the IC50 amounted to 4270 nM.

The molecule `CN1CCC(Oc2ccc(Nc3nccc(-c4cc(C#N)c5c(c4)C(C)(CO)CN5)n3)cc2C(F)(F)F)CC1` (stereo not drawn) [Compound 43] displayed a melting point of 237 °C. Besides, in data set [1], the IC50 was 251 nM. In addition, the IC50 in data set [2] stood at 2.5 nM. The IC50 in data set [3] amounted to 9 nM.

Molecule `CNCCOc1ccc(Cl)cc1Nc1nccc(-c2cc(C#N)c3c(c2)C(C)(CO)CN3)n1` (stereo not drawn) [Compound 44] showed a melting point of 168 °C. Further, the IC50 in data set [1] is > 10000 nM. Besides, the IC50 in data set [2] was found to be 8.3 nM. For the same molecule, in data set [3], the IC50 was 219 nM.

`COc1ccc(Cl)cc1Nc1ncc(F)c(-c2cc(C#N)c3c(c2)C(C)(CO)CN3)n1` (stereo not drawn) [Compound 47]: the melting point was > 250 °C. Further, the IC50 in data set [1] was > 10000 nM. In addition, the IC50 in data set [2] turned out to be 15.1 nM. In addition, in data set [3], the IC50 came out at 776 nM.

In the case of `COc1ccc(Cl)cc1Nc1ncc(F)c(-c2cc(C#N)c3c(c2)[C@@](C)(CO)CN3)n1` [Compound 48], the melting point is > 250 °C. In addition, in data set [1], the IC50 was > 10000 nM. Further, in data set [2], the IC50 came to 8.9 nM. In addition, the IC50 in data set [3] turned out to be 447 nM.

For `CC1(CO)CNc2c(C#N)cc(-c3ccnc(Nc4cc(Cl)ccc4C(F)(F)F)n3)cc21` (stereo not drawn) [Compound 49], the melting point stood at 172 °C. Further, the IC50 in data set [1] is > 10000 nM. In data set [2], the IC50 was found to be 24.6 nM. Also, the IC50 in data set [3] was found to be 1620 nM.

`CC1CN(Cc2ccc(Nc3nccc(-c4cc(C#N)c5c(c4)C(C)(CO)CN5)n3)cc2C(F)(F)F)CC(C)N1C` (stereo not drawn) [Compound 50] registered a melting point of 190 °C. Moreover, in data set [1], the IC50 turned out to be 102 nM. In data set [2], the IC50 was 3 nM. Besides, in data set [3], the IC50 was found to be 9 nM.

On to `Cc1cc(Br)c(Cl)cc1Nc1nccc(-c2cc(C#N)c3c(c2)C(C)(CO)CN3)n1` (stereo not drawn) [Compound 51], for which the melting point was 200 °C. For the same molecule, the IC50 in data set [1] is > 10000 nM. Further, the IC50 in data set [2] turned out to be 49 nM. The IC50 in data set [3] came out at 363 nM.

In turn, `CC1(CO)CNc2c(C#N)cc(-c3ccnc(Nc4cc(Cl)ccc4OC(F)(F)F)n3)cc21` (stereo not drawn) [Compound 52] showed a melting point of 217 °C. Moreover, the IC50 in data set [1] is > 10000 nM. The IC50 in data set [2] was found to be 41.7 nM. In addition, in data set [3], the IC50 is 676 nM.

In turn, `Cc1c(Nc2nccc(-c3cc(C#N)c4c(c3)C(C)(CO)CN4)n2)cc(Cl)cc1C(=O)N(C)C` (stereo not drawn) [Compound 53] returned a melting point of 245 °C. Further, the IC50 in data set [1] stood at 1260 nM. Further, the IC50 in data set [2] came out at 3.6 nM. Besides, in data set [3], the IC50 turned out to be 33 nM.

Take `CN(C)C(=O)Cc1ccc(Cl)cc1Nc1nccc(-c2cc(C#N)c3c(c2)C(C)(CO)CN3)n1` (stereo not drawn) [Compound 54]: the melting point came to 154 °C. In addition, the IC50 in data set [1] is > 10000 nM. Moreover, the IC50 in data set [2] worked out at 9.8 nM. The IC50 in data set [3] was 275 nM.

`CC(C)N1CCN(C(=O)Cc2ccc(Cl)cc2Nc2nccc(-c3cc(C#N)c4c(c3)C(C)(CO)CN4)n2)CC1` (stereo not drawn) [Compound 55] showed a melting point of 135 °C. The IC50 in data set [1] was > 10000 nM. The IC50 in data set [2] is 15.5 nM. For the same molecule, the IC50 in data set [3] came to 282 nM.

Take `CN(C)C(=O)c1ccc(Cl)cc1Nc1nccc(-c2cc(C#N)c3c(c2)C(C)(CO)CN3)n1` (stereo not drawn) [Compound 56]: the melting point was determined as 170 °C. In addition, the IC50 in data set [1] is > 10000 nM. In data set [2], the IC50 was 126 nM. For the same molecule, the IC50 in data set [3] was 1740 nM.

For the molecule `COCCOc1ccc(Cl)cc1Nc1nccc(-c2cc(C#N)c3c(c2)[C@](C)(CO)CN3)n1` [Compound 57], the melting point came out at 188 °C. The IC50 in data set [1] was > 10000 nM. Also, the IC50 in data set [2] came out at 50.1 nM. Also, in data set [3], the IC50 was > 10000 nM.

Molecule `Cc1c(Nc2nccc(-c3cc(C#N)c4c(c3)C(C)(CO)CN4)n2)cc(Cl)cc1C(=O)N1CCN(C)CC1` (stereo not drawn) [Compound 58] returned a melting point of 183 °C. Besides, the IC50 in data set [1] stood at 6760 nM. The IC50 in data set [2] is 2.6 nM. Also, the IC50 in data set [3] turned out to be 85 nM.

As for `CC(=O)Nc1cc(Cl)cc(Nc2nccc(-c3cc(C#N)c4c(c3)[C@@](C)(CO)CN4)n2)c1C` [Compound 63], the melting point was found to be 262 °C. Moreover, the IC50 in data set [1] is ~5010 nM. Also, the IC50 in data set [2] came to 1.7 nM. The IC50 in data set [3] worked out at 7 nM.

Take `COCCOc1cc(P(C)(C)=O)ccc1Nc1nccc(-c2cc(C#N)c3c(c2)[C@@](C)(CO)CN3)n1` [Compound 67]: the melting point is 188 °C. In addition, in data set [1], the IC50 is > 10000 nM. Moreover, the IC50 in data set [2] came to 4.3 nM. Also, the IC50 in data set [3] is ~1700 nM.
